The NIST ThermoML archive (doi:10.1016/j.jct.2016.10.042)

Assay: xn = mol fraction of the nth substance listed
Conditions: 101 kPa, Liquid, Pycnometric method

C=CC(=O)OCC [ethyl propenoate] + C1CCOC1
mass density [kg/m3]
Conditions | 293.15 K | 298.15 K | 303.15 K | 308.15 K | 313.15 K | 318.15 K
x2 = 0 | 921.76 | 915.95 | 910.14 | 904.33 | 898.52 | 892.71
x2 = 0.0825 | 920.35 | 914.64 | 908.93 | 903.22 | 897.5 | 891.78
x2 = 0.167 | 918.74 | 913.11 | 907.48 | 901.85 | 896.22 | 890.59
x2 = 0.2302 | 917.35 | 911.79 | 906.23 | 900.67 | 895.1 | 889.53
x2 = 0.316 | 915.21 | 909.73 | 904.25 | 898.77 | 893.29 | 887.81
x2 = 0.3892 | 913.14 | 907.73 | 902.32 | 896.91 | 891.5 | 886.09
x2 = 0.4603 | 910.93 | 905.58 | 900.23 | 894.88 | 889.53 | 884.18
x2 = 0.5286 | 908.61 | 903.32 | 898.03 | 892.74 | 887.45 | 882.16
x2 = 0.5947 | 906.16 | 900.93 | 895.7 | 890.47 | 885.24 | 880
x2 = 0.6605 | 903.54 | 898.36 | 893.18 | 888 | 882.82 | 877.64
x2 = 0.7283 | 900.64 | 895.52 | 890.4 | 885.28 | 880.16 | 875.04
x2 = 0.7874 | 897.95 | 892.88 | 887.81 | 882.74 | 877.67 | 872.6
x2 = 0.8689 | 894 | 888.98 | 883.96 | 878.94 | 873.92 | 868.9
x2 = 0.936 | 890.52 | 885.53 | 880.54 | 875.55 | 870.56 | 865.57

C=CC(=O)OC(C)(C)C [tert-butyl acrylate] + C1CCOC1
mass density [kg/m3]
Conditions | 293.15 K | 298.15 K | 303.15 K | 308.15 K | 313.15 K | 318.15 K
x2 = 0 | 884.13 | 879.66 | 875.2 | 870.74 | 866.28 | 861.82
x2 = 0.0736 | 884.47 | 880.01 | 875.55 | 871.08 | 866.61 | 862.14
x2 = 0.1489 | 884.84 | 880.36 | 875.88 | 871.4 | 866.92 | 862.44
x2 = 0.2121 | 885.14 | 880.65 | 876.16 | 871.67 | 867.17 | 862.67
x2 = 0.2773 | 885.43 | 880.92 | 876.41 | 871.9 | 867.39 | 862.88
x2 = 0.362 | 885.78 | 881.25 | 876.71 | 872.17 | 867.63 | 863.09
x2 = 0.4382 | 886.06 | 881.5 | 876.94 | 872.37 | 867.8 | 863.23
x2 = 0.5024 | 886.28 | 881.69 | 877.1 | 872.5 | 867.9 | 863.3
x2 = 0.5815 | 886.5 | 881.87 | 877.24 | 872.61 | 867.98 | 863.35
x2 = 0.6532 | 886.66 | 882 | 877.34 | 872.67 | 868 | 863.33
x2 = 0.7268 | 886.79 | 882.08 | 877.37 | 872.66 | 867.95 | 863.24
x2 = 0.7921 | 886.88 | 882.13 | 877.38 | 872.62 | 867.86 | 863.1
x2 = 0.8698 | 886.97 | 882.15 | 877.33 | 872.51 | 867.69 | 862.86
x2 = 0.9352 | 887 | 882.12 | 877.24 | 872.36 | 867.48 | 862.59

C=CC(=O)OCCCC [butyl 2-propenoate] + C1CCOC1
mass density [kg/m3]
Conditions | 293.15 K | 298.15 K | 303.15 K | 308.15 K | 313.15 K | 318.15 K
x2 = 0 | 898.85 | 894.1 | 889.35 | 884.6 | 879.85 | 875.1
x2 = 0.0712 | 898.62 | 893.89 | 889.16 | 884.42 | 879.68 | 874.94
x2 = 0.1406 | 898.39 | 893.66 | 888.93 | 884.19 | 879.45 | 874.71
x2 = 0.208 | 898.1 | 893.37 | 888.64 | 883.91 | 879.17 | 874.43
x2 = 0.2779 | 897.74 | 893.01 | 888.27 | 883.53 | 878.79 | 874.05
x2 = 0.3685 | 897.14 | 892.4 | 887.66 | 882.91 | 878.16 | 873.41
x2 = 0.4339 | 896.6 | 891.85 | 887.1 | 882.35 | 877.59 | 872.83
x2 = 0.4996 | 895.97 | 891.21 | 886.45 | 881.69 | 876.92 | 872.15
x2 = 0.5642 | 895.25 | 890.48 | 885.71 | 880.93 | 876.15 | 871.37
x2 = 0.6426 | 894.22 | 889.43 | 884.64 | 879.85 | 875.05 | 870.25
x2 = 0.7208 | 893.03 | 888.22 | 883.41 | 878.59 | 873.77 | 868.95
x2 = 0.7956 | 891.72 | 886.88 | 882.04 | 877.2 | 872.36 | 867.51
x2 = 0.8642 | 890.32 | 885.45 | 880.58 | 875.71 | 870.84 | 865.97
x2 = 0.9322 | 888.76 | 883.86 | 878.96 | 874.05 | 869.14 | 864.23

C=CC(=O)OC [methyl propenoate] + C1CCOC1
mass density [kg/m3]
Conditions | 293.15 K | 298.15 K | 303.15 K | 308.15 K | 313.15 K | 318.15 K
x2 = 0 | 953.51 | 947.56 | 941.61 | 935.66 | 929.71 | 923.76
x2 = 0.0773 | 950.05 | 944.24 | 938.43 | 932.62 | 926.81 | 921
x2 = 0.1554 | 946.35 | 940.67 | 934.99 | 929.31 | 923.63 | 917.95
x2 = 0.2064 | 943.74 | 938.15 | 932.56 | 926.97 | 921.37 | 915.77
x2 = 0.2545 | 941.15 | 935.63 | 930.11 | 924.58 | 919.05 | 913.52
x2 = 0.3215 | 937.33 | 931.89 | 926.45 | 921 | 915.55 | 910.1
x2 = 0.3989 | 932.62 | 927.26 | 921.9 | 916.54 | 911.17 | 905.8
x2 = 0.4655 | 928.35 | 923.06 | 917.77 | 912.47 | 907.17 | 901.87
x2 = 0.53 | 924.03 | 918.8 | 913.57 | 908.33 | 903.09 | 897.85
x2 = 0.6023 | 918.98 | 913.81 | 908.64 | 903.47 | 898.3 | 893.13
x2 = 0.6834 | 913.02 | 907.92 | 902.82 | 897.72 | 892.62 | 887.52
x2 = 0.7632 | 906.87 | 901.83 | 896.79 | 891.75 | 886.7 | 881.65
x2 = 0.8468 | 900.16 | 895.17 | 890.18 | 885.19 | 880.19 | 875.19
x2 = 0.9316 | 893 | 888.04 | 883.08 | 878.12 | 873.16 | 868.2
